In ChEMBL document CHEMBL3593175, “Bicyclic [3.3.0]-Octahydrocyclopenta[c]pyrrolo Antagonists of Retinol Binding Protein 4: Potential Treatment of Atrophic Age-Related Macular Degeneration and Stargardt Disease” (J Med Chem, 2015):

Legend:
[1] = target: T1, Retinol-binding protein 4 (Homo sapiens, UniProt P02753); test: Displacement of [3H]-retinol from RBP4 (unknown origin) by scintillation proximity assay
[2] = target: T1, Retinol-binding protein 4; test: Inhibition of retinol-induced interaction of bacterially expressed MBP-tagged RBP4 (unknown origin) with Eu3+ cryptate labeled TTR by HTRF assay
[3] = Metabolic stability in human liver microsomes assessed as compound remaining at 10 uM after 30 mins; type: ADME; details: read-out: Stability
[4] = Metabolic stability in rat liver microsomes assessed as compound remaining at 10 uM after 30 mins; type: ADME; details: read-out: Stability

IC50 [1] | IC50 [2] | remaining at 0.5 h, 10 µM [3] | remaining at 0.5 h, 10 µM [4] | SMILES
0.0353 µM | 0.188 µM | 68% | 96% | Cc1cc(C(=O)O)nc(N2CCC(c3ccccc3C(F)(F)F)CC2)n1
0.0463 µM | 0.0334 µM | – | – | Cc1cc(C(=O)O)nc(N2C[C@H]3C[C@@H](c4cc(F)ccc4C(F)(F)F)C[C@H]3C2)n1
0.0574 µM | 0.14 µM | 80% | 76% | Cc1cc(C(=O)O)nc(N2C[C@@H]3CN(c4ccccc4C(F)(F)F)C[C@@H]3C2)n1
0.0097 µM | 1.4 µM | 0% | 0% | COC(=O)c1cc(C)nc(N2CCN(c3ccccc3C(F)(F)F)CC2)n1
0.196 µM | – | – | – | Cc1cc(C(=O)O)nc(N2C[C@H]3C[C@@H](c4cccc(F)c4C(F)(F)F)C[C@H]3C2)n1
0.0408 µM | 0.523 µM | – | – | Cc1nc(N2C[C@H]3C[C@@H](c4ccccc4C(F)(F)F)C[C@H]3C2)ncc1C(=O)O
0.532 µM | 0.347 µM | – | – | Cc1cc(C(=O)O)nc(N2C[C@H]3C[C@@H](c4cc(F)ccc4Cl)C[C@H]3C2)n1
0.584 µM | 4.91 µM | – | – | Cc1ccc(N2C[C@H]3C[C@@H](c4ccccc4C(F)(F)F)C[C@H]3C2)nc1C(=O)O
0.023 µM | 0.437 µM | – | – | O=C(O)c1cnnc(N2C[C@H]3C[C@@H](c4ccccc4C(F)(F)F)C[C@H]3C2)c1
0.137 µM | 0.504 µM | – | – | Cc1cc(C(=O)O)nc(N2C[C@H]3C[C@@H](c4cccc(F)c4Cl)C[C@H]3C2)n1
0.0063 µM | 0.1 µM | 0.2% | 9.8% | COC(=O)c1cc(C)nc(N2C[C@H]3C[C@@H](c4ccccc4C(F)(F)F)C[C@H]3C2)n1
0.0041 µM | 0.132 µM | – | – | COC(=O)c1cc(C)nc(N2CCC(c3ccccc3C(F)(F)F)CC2)n1

SMILES | IC50 [1] | IC50 [2] | remaining at 0.5 h, 10 µM [3] | remaining at 0.5 h, 10 µM [4]
Cc1cc(-c2nnn[nH]2)nc(N2C[C@H]3C[C@@H](c4ccccc4C(F)(F)F)C[C@H]3C2)n1 | – | 0.175 µM | – | –
